Data from US11241434B2, “Compositions and methods for improving cognition in a subject” (Yale University, priority 2013, dated 2022).

Legend:
[1] = system: subjects with mild to moderate AD; experiment: Phase Ib multiple ascending dose study, safety and tolerability; assay type: in vivo; settings: human, 50, 100 or 125 mg PO daily
Source text: Subjects were enrolled in three cohorts of 8 subjects each.

PS19 mice = experiment: Passive avoidance test in PS19 mice; assay type: in vivo, mouse; settings: 8-month-old PS19 mice, 6 months of treatment
Source text: FIGS. 11A-11C illustrate that Fyn kinase inhibition prevents memory deficits in P301S Tau transgenic tice. FIG. 11A: Timeline of PS19 mouse treatment. FIG. 11B: Morris water maze probe trial for 8-month-old PS19 or WT mice after 6 months of AZD0530 or Vehicle treatment. Twenty four hours after the reverse learning trials in the Morris water maze, the submerged platform was removed and the fraction of 60 sec spent in the target quadrant where the hidden platform had been located previously was recorded. n=11-15/group, each dot is one mouse. Data are mean±SEM. Dashed line indicates random chance performance. Two-way ANOVA reveal an interaction between genotype and treatment (p=0.014). *p<0.05; Sidak's post-hoc multiple comparisons test. FIG. 11C: Passive avoidance test for 8-month-old PS19 and WT mice after 6 months of treatment with AZD0530 or Vehicle. Latency was measured as the time for the mouse to cross to the opaque box. n=16-18/group. Wilcoxon match-pairs signed test; (WT, Vehicle: p=0.0007; WT, AZD0530: p<0.0001; […]; PS19, AZD0530: p=0.0126.)
A Passive Avoidance Controller CAT 7551 was used to conduct the passive avoidance test as previously described (Gimbel et al., 2010, J Neurosci 30:6367-6374) with slight modifications. The door delay was set to 90 seconds, and the shock intensity was set to 0.5 mA with a shock duration of 2 seconds. […]

[2] = system: mice with closed head injury (CHI) and chronic variable stress (CVS); experiment: Behavioral tests after closed head injury plus chronic variable stress; assay type: in vivo, mouse
Procedure: FIGS. 15A-15H illustrate the finding that Fyn inhibition rescues memory deficits after repeated mild head injury combined with chronic stress. FIG. 15A: Timeline for mice undergoing 14 days of chronic variable stress (CVS) and closed head injury (CHI) or Sham CVS & CHI paradigm. On Day 15, Rotarod testing was done to assess motor impairment in a subset of mice. The mice were treated with either AZD0530 (5 mg/kg/d) or Vehicle treatment for 10 weeks starting 24 hours after the final day of injury. This was followed by one week of behavioral testing, including novel object recognition test and Morris water maze prior to perfusion and immunohistochemistry. FIG. 15B: Rotarod prior to the treatment using the Sham and Injured groups. One-way ANOVA, p>0.05. Data are mean±SEM. n=8-9/group, each dot is one mouse. FIG. 15C: Novel object recognition test using the Sham mice and Injured mice with and without AZD0530 treatment. Two-way ANOVA, F(2,64)=5.258 p=0.007 for interaction of group with object, Sidak's multiple comparison test: Novel vs Familiar for Sham Vehicle (SV): p<0.0001, for Injured Vehicle (IV): p=0.99, for Injured AZD (IA): p=0.0002. Data are mean±SEM. n=9-13/group, each dot represents one mouse. FIG. 15D: Latency to reach a hidden platform in Morris water maze across 6 blocks of 4 swims for Sham mice and Injured mice with and without AZD0530 treatment. Data are mean±SEM. n=14-17/group. Two-way ANOVA for time and group with main effect of group, p<0.0001, F (2, 41)=47.24. Tukey's multiple comparison test: SV vs IV: p<0.0001, IV vs IA: p=0.98, SV vs IA: p<0.0001. FIG. 15E: Morris water maze probe trial for Sham or Injured mice treated with Vehicle or AZD0530, showing time in the Target quadrant. One way ANOVA: F(2,39)=9.410, p=0.0005, Tukey's multiple comparison test: SV vs IV: p=0.0003, IV vs IA: p=0.12, SV vs IA: p=0.05. Data are mean±SEM. n=13-15/group, each dot is one mouse. Dashed line indicates random chance performance. FIG. 15F: A second group of mice underwent a similar 14 days of chronic variable stress (CVS) plus closed head injury (CHI) or Sham CVS & CHI paradigm, and then starting on Day 121 were treated with either AZD0530 (5 mg/kg/d) or Vehicle for 10 weeks. The mice subsequently underwent Morris water maze testing. […] Data are mean±SEM. n=8-26/group. […] Data are mean±SEM. n=8-26/group, each dot is one mouse.
The injury model was based on the combination of Closed Head Injury (CHI) and Chronic Variable Stress (CVS). The Sham mice received Sham-CHI and Sham-CVS treatments.
Closed Head Injury (CHI) is a well-established mice injury model (Sangobowale et al, 2018, Neurotrauma 35:907-917). Mice were weighed prior to receiving Sham-CHI or CHI. […] Mice were placed on a heating pad to maintain body temperature while receiving the impact, as well as during the post-injury recovery period. The mice underwent a total of 14 consecutive days of CHI injury, once per day. The site of injury alternated between right and left hemispheres on consecutive days. Each CHI injury was performed 1-3 hours after that day's CVS exposure. Injury severity was assessed using time interval between injury and recovery of the righting reflex (Grin'kina et al., 2013, PLoS One 8, e53775). The mice were placed on a heat pad both while receiving the impact, as well as the period following the impact to preserve their core body temperature. Mice were returned to vivarium after restoration of their righting reflex and this was typically less than 5 minutes. […]

Src, Fyn, Yes and Lyn = settings: blocking Src, read-out: potency; cited from earlier work
[3] = dog, 6 month study, cited from earlier work
[4] = Injured mice, 5 mg/kg/day from Day 15, 10 weeks

## CN1CCN(CCOc2cc(OC3CCOCC3)c3c(Nc4c(Cl)ccc5c4OCO5)ncnc3c2)CC1 [saracatinib, N-(5-chloro-benzo[d][1,3]dioxol-4-yl)-7-(2-(4-methylpiperazin-1-yl)ethoxy)-5-(tetrahydro-2H-pyran-4-yloxy)quinazolin-4-amine]
[1]
  hematological changes: no significant hematological changes
  serious adverse events, laboratory abnormalities, early terminations: no apparent study-related serious adverse events (SAEs), significant laboratory abnormalities, or early terminations
PS19 mice
  passive avoidance at 24 hours: exhibited passive avoidance
[2]; [4]
  Morris water maze learning trials: severely impaired learning relative to Sham Vehicle
  Morris water maze probe trial memory for platform location: not statistically distinguishable from Sham Vehicle
[2]; Injured mice, 5 mg/kg/day oral gavage from Day 15 (24 hours after final injury), 10 weeks
  novel object recognition: recognized familiar objects as successfully as Sham Vehicle mice
[2]; Injured mice, treatment from Day 121 (107 days after final injury), 10 weeks
  Morris water maze probe trial memory: no evidence of improved memory
[2]; treatment from Day 121, 10 weeks
  Morris water maze latency in learning trials, Injured AZD vs Injured Vehicle: not significantly different from one another
Src, Fyn, Yes and Lyn
  IC50: 2 to 10 nM
[3]; 5 mg/kg/d
  toxicity: mild GI toxicity
[3]
  NOAEL: 0.5 mg/kg/day
